This data set is classed as in vivo, male Sprague-Dawley rats. To be noted: rats, saline solution, 50 mg/kg.

We go through 1 compound from article PMC4224687 (Journal of Controlled Release, 2014).

`CO[C@H]1O[C@H](COS(=O)(=O)O)[C@@H](O[C@@H]2O[C@@H](C(=O)O)[C@@H](O[C@H]3O[C@H](COS(=O)(=O)O)[C@@H](O[C@@H]4O[C@H](C(=O)O)[C@@H](O[C@H]5O[C@H](COS(=O)(=O)O)[C@@H](O)[C@H](O)[C@H]5NS(=O)(=O)O)[C@H](O)[C@H]4O)[C@H](OS(=O)(=O)O)[C@H]3NS(=O)(=O)O)[C@H](O)[C@H]2OS(=O)(=O)O)[C@H](O)[C@H]1NS(=O)(=O)O` [Fpx, Fondaparinux]: the “oral absorption” value was “not absorbed”.
